Our source for the IC50 values is US20140107100A1, “Benzoxazepines as Inhibitors of PI3K/mTOR and Methods of Their Use and Manufacture” (EXELIXIS, INC., priority 2010, published 2014).

SMILES strings stand for the structures. pIC50: −log10 of the molar value. A value given as a limit tells only on which side of the number the result lay.

The assay concerns the target mTOR/GbL/Raptor (mTORC1) (Homo sapiens, UniProt P42345). Kind of assay: mTOR/GbL/Raptor (mTORC1) ELISA assay, phosphorylation of 4E-BP1. Conditions: 0.2 nM mTORC1, 40 uM ATP, 50 nM NHis-tagged 4E-BP1, 120 minutes; read-out: IC50 in this assay (mTORC1 ELISA). Format: biochemical. As to the method:
The measurement of mTORC1 enzyme activity was performed in an ELISA assay format following the phosphorylation of 4E-BP1 protein. All experiments were performed in the 384-well format. Generally, 0.5 μL DMSO containing varying concentrations of the test Compound was mixed with 15 μL enzyme solution. Kinase reactions were initiated with the addition of 15 μL of substrates-containing solution. The assay conditions were-as follows; 0.2 nM mTORC1, 40 uM ATPand 50 nM NHis-tagged4E-BP1 in20 mM Hepes, pH 7.2, 1 mM DTT, 50 mMNaC1, 10 mM MnC12, 0.02 mg/mL BSA, 0.01% CHAPS, 50 mM β-glycerophosphate. Following an incubation of 120 minutes at anibient temperature, 20 μL of the reaction volume was transferred to a Ni-Chelate-coated 384-well plate. The binding step of the 4E-BP1 protein proceeded for 60 minutes, followed by washing 4 times each with 50 uL of Tris-buffered saline solution (TBS). Anti-phospho-4E-BPl rabbit-IgG ([…]. 1:5000) in 5% BSA-TBST (0.2% Tween-20 in TBS) was added and further incubated for 60 minutes. Incubation with a secondary HRP-tagged anti-IgG was similarly performed after washing off the primary antibody (4 washes of 50 μL). Following the final wash step with TBST, 20 μL of SuperSignal ELISA Femto (Pierce Biotechnology) was added and the luminescence measured using an En Vision plate reader.
A general note: An ELISA detects its analyte on a solid surface through an enzyme-linked reagent.
The pIC50 is −log10 of the IC50, conventionally taken in molar units. For the compound `Cc1cc(-c2cnc3sc(N)nc3c2)cc2c1OCCN(c1nc(CN(C)C)ncc1C(C)C)C2` [Compound 58, 6-(4-{2-[(dimethylamino)methyl]-5-(1-methylethyl)pyrimidin-4-yl}-9-methyl-2,3,4,5-tetrahydro-1,4-benzoxazepin-7-yl)[1,3]thiazolo[5,4-b]pyridin-2-amine], the negative logarithm of the IC50 (pIC50) is at least 7.00.

For `Cc1cc(-c2cnc3sc(N)nc3c2)cc2c1OCCN(c1nc(CN3CCCC3)nc(C)c1C(C)C)C2` [Compound 59, 6-{9-methyl-4-[6-methyl-5-(1-methylethyl)-2-(pyrrolidin-1-ylmethyl)pyrimidin-4-yl]-2,3,4,5-tetrahydro-1,4-benzoxazepin-7-yl}[1,3]thiazolo[5,4-b]pyridin-2-amine], the pIC50 was at least 7.00.

Regarding `Cc1cc(-c2cnc3sc(N)nc3c2)cc2c1OCCN(c1nc(CN(C)C)ncc1CC(F)(F)F)C2` [Compound 60, 6-(4-{2-[(dimethylamino)methyl]-5-(2,2,2-trifluoroethyl)pyrimidin-4-yl}-9-methyl-2,3,4,5-tetrahydro-1,4-benzoxazepin-7-yl)[1,3]thiazolo[5,4-b]pyridin-2-amine], the pIC50 was 6.30 to 7.00.

As for `CCc1c(Cl)nc(CN(C)C)nc1N1CCOc2c(C)cc(-c3cnc4sc(N)nc4c3)cc2C1` [Compound 61, 6-(4-{6-chloro-2-[(dimethylamino)methyl]-5-ethylpyrimidin-4-yl}-9-methyl-2,3,4,5-tetrahydro-1,4-benzoxazepin-7-yl)[1,3]thiazolo[5,4-b]pyridin-2-amine], the pIC50 was at least 7.00.

Turning to `Cc1cc(-c2cnc3sc(N)nc3c2)cc2c1OCCN(c1nc(N)nc(Cl)c1C(C)C)C2` [Compound 62, 6-{4-[2-amino-6-chloro-5-(1-methylethyl)pyrimidin-4-yl]-9-methyl-2,3,4,5-tetrahydro-1,4-benzoxazepin-7-yl}[1,3]thiazolo[5,4-b]pyridin-2-amine], the pIC50 was at least 7.00.

Consider `Cc1cc(-c2cnc3sc(N)nc3c2)cc2c1OCCN(c1nc(CN(C)C)nc(Cl)c1C(C)C)C2` [Compound 63, 6-(4-{6-chloro-2-[(dimethylamino)methyl]-5-(1-methylethyl)pyrimidin-4-yl}-9-methyl-2,3,4,5-tetrahydro-1,4-benzoxazepin-7-yl)[1,3]thiazolo[5,4-b]pyridin-2-amine], for which the negative logarithm of the IC50 (pIC50) was at least 7.00.

For `Cc1cc(-c2cnc3sc(N)nc3c2)cc2c1OCCN(c1nc(CO)nc(C)c1C(C)C)C2` [Compound 64, {4-[7-(2-amino[1,3]thiazolo[5,4-b]pyridin-6-yl)-9-methyl-2,3-dihydro-1,4-benzoxazepin-4(5H)-yl]-6-methyl-5-(1-methylethyl)pyrimidin-2-yl}methanol], the pIC50 was at least 7.00.

With `CCN(CC)Cc1nc(C)c(C(C)C)c(N2CCOc3c(C)cc(-c4cnc5sc(N)nc5c4)cc3C2)n1` [Compound 65, 6-(4-{2-[(diethylamino)methyl]-6-methyl-5-(1-methylethyl)pyrimidin-4-yl}-9-methyl-2,3,4,5-tetrahydro-1,4-benzoxazepin-7-yl)[1,3]thiazolo[5,4-b]pyridin-2-amine], the pIC50 was at least 7.00.

On to `CCc1cnc(CN(C)C)nc1N1CCOc2c(C)cc(-c3cnc4sc(N)nc4c3)cc2C1` [Compound 66, 6-(4-{2-[(dimethylamino)methyl]-5-ethylpyrimidin-4-yl}-9-methyl-2,3,4,5-tetrahydro-1,4-benzoxazepin-7-yl)[1,3]thiazolo[5,4-b]pyridin-2-amine], for which the negative-log IC50 (pIC50) is at least 7.00.

Regarding `CCc1c(C)nc(CN(C)C)nc1N1CCOc2c(C)cc(-c3cnc4sc(N)nc4c3)cc2C1` [Compound 67, 6-(4-{2-[(dimethylamino)methyl]-5-ethyl-6-methylpyrimidin-4-yl}-9-methyl-2,3,4,5-tetrahydro-1,4-benzoxazepin-7-yl)[1,3]thiazolo[5,4-b]pyridin-2-amine], the negative-log IC50 (pIC50) was at least 7.00.

Regarding `Cc1cc(-c2cccc(O)c2)cc2c1OCCN(c1nc(N)nc(C)c1C(C)C)C2` [Compound 70, 3-{4-[2-amino-6-methyl-5-(1-methylethyl)pyrimidin-4-yl]-9-methyl-2,3,4,5-tetrahydro-1,4-benzoxazepin-7-yl}phenol], the negative logarithm of the IC50 (pIC50) is 6.30 to 7.00.

For `Cc1cc(-c2cncnc2)cc2c1OCCN(c1nc(N)nc(C)c1C(C)C)C2` [Compound 71, 4-methyl-5-(1-methylethyl)-6-(9-methyl-7-pyrimidin-5-yl-2,3-dihydro-1,4-benzoxazepin-4(5H)-yl)pyrimidin-2-amine], the negative logarithm of the IC50 (pIC50) was 6.30 to 7.00.

As for `Cc1cc(-c2ccn[nH]2)cc2c1OCCN(c1nc(N)nc(C)c1C(C)C)C2` [Compound 72, 4-methyl-5-(1-methylethyl)-6-[9-methyl-7-(1H-pyrazol-5-yl)-2,3-dihydro-1,4-benzoxazepin-4(5H)-yl]pyrimidin-2-amine], the negative-log IC50 (pIC50) was 6.30 to 7.00.

`Cc1cc(-c2ccc3c(c2)OCO3)cc2c1OCCN(c1nc(N)nc(C)c1C(C)C)C2` [Compound 73, 4-[7-(1,3-benzodioxol-5-yl)-9-methyl-2,3-dihydro-1,4-benzoxazepin-4(5H)-yl]-6-methyl-5-(1-methylethyl)pyrimidin-2-amine]: the negative-log IC50 (pIC50) is 6.30 to 7.00.

For the compound `COc1ccc(-c2cc(C)c3c(c2)CN(c2nc(N)nc(C)c2C(C)C)CCO3)cn1` [Compound 74, 4-methyl-5-(1-methylethyl)-6-{9-methyl-7-[6-(methyloxy)pyridin-3-yl]-2,3-dihydro-1,4-benzoxazepin-4(5H)-yl}pyrimidin-2-amine], the negative-log IC50 (pIC50) is 6.30 to 7.00.

Consider `Cc1cc(-c2ccncc2)cc2c1OCCN(c1nc(N)nc(C)c1C(C)C)C2` [Compound 75], for which the pIC50 is 6.30 to 7.00.

`Cc1cc(-c2cccnc2)cc2c1OCCN(c1nc(N)nc(C)c1C(C)C)C2` [Compound 76, 4-methyl-5-(1-methylethyl)-6-(9-methyl-7-pyridin-3-yl-2,3-dihydro-1,4-benzoxazepin-4(5H)-yl)pyrimidin-2-amine]: the pIC50 was 6.30 to 7.00.

Turning to `Cc1cc(-c2cccc(C(N)=O)c2)cc2c1OCCN(c1nc(N)nc(C)c1C(C)C)C2` [Compound 77, 3-{4-[2-amino-6-methyl-5-(1-methylethyl)pyrimidin-4-yl]-9-methyl-2,3,4,5-tetrahydro-1,4-benzoxazepin-7-yl}benzamide], the pIC50 was 6.30 to 7.00.

Take `COc1ccc(-c2cc(C)c3c(c2)CN(c2nc(N)nc(C)c2C(C)C)CCO3)cc1OC` [Compound 78, 4-{7-[3,4-bis(methyloxy)phenyl]-9-methyl-2,3-dihydro-1,4-benzoxazepin-4(5H)-yl}-6-methyl-5-(1-methylethyl)pyrimidin-2-amine]: the negative logarithm of the IC50 (pIC50) is 6.30 to 7.00.

With `COc1cncc(-c2cc(C)c3c(c2)CN(c2nc(N)nc(C)c2C(C)C)CCO3)c1` [Compound 79, 4-methyl-5-(1-methylethyl)-6-{9-methyl-7-[5-(methyloxy)pyridin-3-yl]-2,3-dihydro-1,4-benzoxazepin-4(5H)-yl}pyrimidin-2-amine], the negative logarithm of the IC50 (pIC50) was 6.30 to 7.00.

Regarding `Cc1cc(-c2cn[nH]c2)cc2c1OCCN(c1nc(N)nc(C)c1C(C)C)C2` [Compound 80, 4-methyl-5-(1-methylethyl)-6-[9-methyl-7-(1H-pyrazol-4-yl)-2,3-dihydro-1,4-benzoxazepin-4(5H)-yl]pyrimidin-2-amine], the pIC50 was at least 7.00.

For the compound `Cc1cc(-c2cnc(N)nc2)cc2c1OCCN(c1nc(N)nc(C)c1C(C)C)C2` [Compound 81, 4-[7-(2-aminopyrimidin-5-yl)-9-methyl-2,3-dihydro-1,4-benzoxazepin-4(5H)-yl]-6-methyl-5-(1-methylethyl)pyrimidin-2-amine], the negative logarithm of the IC50 (pIC50) is 6.30 to 7.00.
